Data reported in publication PMC8429728, “TNK1 is a ubiquitin-binding and 14-3-3-regulated kinase that can be targeted to block tumor growth” (Nature Communications, 2021).
Read-outs that look alike come from different tables or passages of the source.

How the values were obtained:
Assay in all cases: biochemical
Parameters in all cases: Reaction Biology 371-kinase panel at Km ATP, per cent enzyme activity relative to DMSO, single dose in duplicate
PAK5 = PAK5 (Homo sapiens, UniProt Q9P286); conditions: duplicate measurements, Km ATP
Method in brief: (§1)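 Percent kinase activity relative to vehicle (DMSO) is reported for a 371-kinase in vitro panel at 300 nM compound; IC50 values derive from variable-slope sigmoidal fits with the lower plateau fixed at 0.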

TSSK3/STK22C = TSSK3/STK22C (Homo sapiens, UniProt Q96PN8); conditions: duplicate measurements, Km ATP
Chain of TSSK3/STK22C (Q96PN8 whole entry): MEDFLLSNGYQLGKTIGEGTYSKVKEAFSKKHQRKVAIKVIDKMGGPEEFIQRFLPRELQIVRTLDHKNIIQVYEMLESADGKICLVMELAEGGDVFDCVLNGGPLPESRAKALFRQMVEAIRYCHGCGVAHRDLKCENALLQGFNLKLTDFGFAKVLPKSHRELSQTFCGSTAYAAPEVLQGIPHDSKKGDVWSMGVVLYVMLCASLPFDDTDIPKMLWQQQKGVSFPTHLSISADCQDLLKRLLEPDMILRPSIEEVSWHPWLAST
Method in brief: as §1

CDK5/P25 = target: T1, CDK5/P25 (Homo sapiens, UniProt Q00535); conditions: duplicate measurements, Km ATP
T1 construct: p25
Method in brief: as §1

GCK/MAP4K2 = GCK/MAP4K2 (Homo sapiens, UniProt Q12851); conditions: duplicate measurements, Km ATP
Chain of GCK/MAP4K2 (Q12851 whole entry): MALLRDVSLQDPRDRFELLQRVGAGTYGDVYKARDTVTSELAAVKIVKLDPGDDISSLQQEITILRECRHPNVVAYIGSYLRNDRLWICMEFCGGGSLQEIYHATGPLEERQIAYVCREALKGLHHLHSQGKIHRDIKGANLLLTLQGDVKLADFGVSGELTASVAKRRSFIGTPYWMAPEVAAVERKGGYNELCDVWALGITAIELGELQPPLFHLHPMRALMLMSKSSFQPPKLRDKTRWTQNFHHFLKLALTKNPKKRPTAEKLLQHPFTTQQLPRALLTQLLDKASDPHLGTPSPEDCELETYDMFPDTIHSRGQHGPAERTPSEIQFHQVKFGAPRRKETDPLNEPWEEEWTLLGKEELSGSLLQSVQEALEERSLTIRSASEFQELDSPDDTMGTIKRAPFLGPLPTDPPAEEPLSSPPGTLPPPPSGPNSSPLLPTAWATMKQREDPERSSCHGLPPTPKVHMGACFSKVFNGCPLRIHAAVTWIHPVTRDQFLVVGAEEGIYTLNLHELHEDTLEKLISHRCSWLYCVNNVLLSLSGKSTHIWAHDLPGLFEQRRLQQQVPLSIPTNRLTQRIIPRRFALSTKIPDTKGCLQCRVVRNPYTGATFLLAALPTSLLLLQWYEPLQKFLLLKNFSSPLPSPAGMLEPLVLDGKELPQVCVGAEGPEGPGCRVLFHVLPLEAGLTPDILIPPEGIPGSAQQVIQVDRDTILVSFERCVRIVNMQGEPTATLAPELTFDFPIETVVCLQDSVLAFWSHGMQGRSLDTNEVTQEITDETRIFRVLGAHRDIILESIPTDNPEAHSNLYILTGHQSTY
Method in brief: as §1

DCAMKL2 = target: T2, DCAMKL2 (Homo sapiens, UniProt Q8N568); conditions: duplicate measurements, Km ATP
T2 construct: gene DCLK2
Method in brief: as §1

CHK2 = target: T3, CHK2 (Homo sapiens, UniProt O96017); conditions: duplicate measurements, Km ATP
T3 construct: gene CHEK2
T3 sequence (O96017 whole entry): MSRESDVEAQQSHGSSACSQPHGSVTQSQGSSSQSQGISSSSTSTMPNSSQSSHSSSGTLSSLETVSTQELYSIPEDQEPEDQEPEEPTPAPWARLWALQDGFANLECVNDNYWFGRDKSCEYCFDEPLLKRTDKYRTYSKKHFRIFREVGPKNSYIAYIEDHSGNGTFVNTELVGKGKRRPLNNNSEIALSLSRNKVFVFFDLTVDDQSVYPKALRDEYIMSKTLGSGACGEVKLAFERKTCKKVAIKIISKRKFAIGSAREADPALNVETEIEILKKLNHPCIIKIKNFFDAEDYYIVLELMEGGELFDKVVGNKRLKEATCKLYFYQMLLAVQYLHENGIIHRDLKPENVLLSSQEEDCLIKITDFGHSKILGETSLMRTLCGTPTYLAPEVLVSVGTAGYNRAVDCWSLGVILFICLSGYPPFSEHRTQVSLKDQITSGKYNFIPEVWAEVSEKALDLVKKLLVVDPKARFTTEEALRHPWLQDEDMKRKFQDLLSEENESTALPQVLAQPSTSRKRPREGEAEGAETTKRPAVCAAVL
Method in brief: as §1

HGK/MAP4K4 = HGK/MAP4K4 (Homo sapiens, UniProt O95819); conditions: duplicate measurements, Km ATP
Method in brief: as §1

GRK5 = GRK5 (Homo sapiens, UniProt P34947); conditions: duplicate measurements, Km ATP
Method in brief: as §1

ERN2/IRE2 = ERN2/IRE2 (Homo sapiens, UniProt Q76MJ5); conditions: duplicate measurements, Km ATP
Method in brief: as §1

TGFBR2 = TGFBR2 (Homo sapiens, UniProt P37173); conditions: duplicate measurements, Km ATP
Method in brief: as §1

JNK3 = target: T4, JNK3 (Homo sapiens, UniProt P53779); conditions: duplicate measurements, Km ATP
T4 construct: gene MAPK10
Method in brief: as §1

ERK5/MAPK7 = ERK5/MAPK7 (Homo sapiens, UniProt Q13164); conditions: duplicate measurements, Km ATP
Chain of ERK5/MAPK7 (Q13164 whole entry): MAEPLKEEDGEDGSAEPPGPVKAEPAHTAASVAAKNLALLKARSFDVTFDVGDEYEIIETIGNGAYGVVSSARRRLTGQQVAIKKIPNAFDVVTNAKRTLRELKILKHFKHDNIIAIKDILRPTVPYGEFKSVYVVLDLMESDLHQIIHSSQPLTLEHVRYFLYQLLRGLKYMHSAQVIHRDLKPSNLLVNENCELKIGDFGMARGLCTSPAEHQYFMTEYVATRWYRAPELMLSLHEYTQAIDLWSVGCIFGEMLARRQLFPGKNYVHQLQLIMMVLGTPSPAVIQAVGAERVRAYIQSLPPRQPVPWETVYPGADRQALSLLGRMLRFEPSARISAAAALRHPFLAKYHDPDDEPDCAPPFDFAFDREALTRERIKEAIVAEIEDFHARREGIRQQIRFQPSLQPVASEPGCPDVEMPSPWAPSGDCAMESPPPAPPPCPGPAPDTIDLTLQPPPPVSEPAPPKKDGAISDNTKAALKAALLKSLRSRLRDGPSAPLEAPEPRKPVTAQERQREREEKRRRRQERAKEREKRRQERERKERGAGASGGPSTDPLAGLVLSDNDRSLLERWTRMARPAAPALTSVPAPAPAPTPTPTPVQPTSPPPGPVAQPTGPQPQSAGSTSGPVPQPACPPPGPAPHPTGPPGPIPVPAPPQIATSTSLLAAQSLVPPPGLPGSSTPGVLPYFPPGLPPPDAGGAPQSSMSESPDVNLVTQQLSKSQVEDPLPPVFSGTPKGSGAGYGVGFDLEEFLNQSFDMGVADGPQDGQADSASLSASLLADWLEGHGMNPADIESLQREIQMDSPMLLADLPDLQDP
Method in brief: as §1

CDK1/cyclin B = CDK1/cyclin B (Homo sapiens, UniProt P06493); conditions: duplicate measurements, Km ATP; read-out: % Enzyme Activity (relative to DMSO controls) / TP-0005801 (0.3µM) / Data 1
Method in brief: as §1

KSR1 = KSR1 (Homo sapiens, UniProt Q8IVT5); conditions: duplicate measurements, Km ATP
Chain of KSR1 (Q8IVT5 whole entry): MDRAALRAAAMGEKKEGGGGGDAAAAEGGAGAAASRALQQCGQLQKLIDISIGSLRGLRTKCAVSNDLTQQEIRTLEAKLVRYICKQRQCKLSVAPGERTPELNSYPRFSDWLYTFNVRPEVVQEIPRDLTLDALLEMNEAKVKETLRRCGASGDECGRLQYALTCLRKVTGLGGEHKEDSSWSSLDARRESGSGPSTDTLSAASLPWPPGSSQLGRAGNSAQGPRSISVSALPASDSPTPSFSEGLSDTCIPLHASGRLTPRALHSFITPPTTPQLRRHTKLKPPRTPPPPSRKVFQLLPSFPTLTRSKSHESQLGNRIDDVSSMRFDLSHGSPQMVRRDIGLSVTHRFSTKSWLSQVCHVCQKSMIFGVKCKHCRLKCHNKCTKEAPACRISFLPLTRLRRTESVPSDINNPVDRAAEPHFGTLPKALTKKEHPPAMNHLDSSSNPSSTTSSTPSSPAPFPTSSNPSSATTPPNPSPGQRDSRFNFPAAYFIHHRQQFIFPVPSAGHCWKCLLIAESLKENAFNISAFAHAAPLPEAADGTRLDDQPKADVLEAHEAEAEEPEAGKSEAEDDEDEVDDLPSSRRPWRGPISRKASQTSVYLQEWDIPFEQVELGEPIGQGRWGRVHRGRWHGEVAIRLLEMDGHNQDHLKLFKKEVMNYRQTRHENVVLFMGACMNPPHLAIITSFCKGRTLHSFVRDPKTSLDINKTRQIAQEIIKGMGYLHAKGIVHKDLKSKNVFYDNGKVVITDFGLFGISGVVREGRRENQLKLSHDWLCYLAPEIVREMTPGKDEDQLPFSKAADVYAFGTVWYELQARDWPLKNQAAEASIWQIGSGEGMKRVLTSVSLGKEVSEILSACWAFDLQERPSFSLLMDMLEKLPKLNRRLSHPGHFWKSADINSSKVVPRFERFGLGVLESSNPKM
Method in brief: as §1

ALK5/TGFBR1 = ALK5/TGFBR1 (Homo sapiens, UniProt P36897); conditions: duplicate measurements, Km ATP
Method in brief: as §1

GRK6 = GRK6 (Homo sapiens, UniProt P43250); conditions: duplicate measurements, Km ATP
Method in brief: as §1

TAK1 = target: T5, TAK1 (Homo sapiens, UniProt O43318); conditions: duplicate measurements, Km ATP
T5 construct: gene MAP3K7
Method in brief: as §1

PAK1 = PAK1 (Homo sapiens, UniProt Q13153); conditions: duplicate measurements, Km ATP
Chain of PAK1 (Q13153 whole entry): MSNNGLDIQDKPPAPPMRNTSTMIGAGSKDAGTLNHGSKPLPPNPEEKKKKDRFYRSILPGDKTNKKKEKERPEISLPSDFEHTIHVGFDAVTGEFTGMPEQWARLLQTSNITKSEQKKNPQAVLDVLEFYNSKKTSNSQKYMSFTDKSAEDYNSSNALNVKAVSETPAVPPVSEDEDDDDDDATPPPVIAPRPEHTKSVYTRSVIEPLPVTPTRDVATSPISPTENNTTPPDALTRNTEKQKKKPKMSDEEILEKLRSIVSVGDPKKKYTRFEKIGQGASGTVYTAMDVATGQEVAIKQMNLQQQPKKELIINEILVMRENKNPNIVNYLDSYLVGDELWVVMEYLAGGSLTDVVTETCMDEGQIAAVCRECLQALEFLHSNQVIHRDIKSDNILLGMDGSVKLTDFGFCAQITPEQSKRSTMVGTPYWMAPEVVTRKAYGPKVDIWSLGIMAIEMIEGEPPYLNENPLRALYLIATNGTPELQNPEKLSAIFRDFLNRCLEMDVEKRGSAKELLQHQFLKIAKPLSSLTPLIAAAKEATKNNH
Method in brief: as §1

TYRO3/SKY = TYRO3/SKY (Homo sapiens, UniProt Q06418); conditions: duplicate measurements, Km ATP; read-out: % Enzyme Activity (relative to DMSO controls) / TP-0005801 (0.3µM) / Data 1
Method in brief: as §1

IRAK1 = IRAK1 (Homo sapiens, UniProt P51617); conditions: duplicate measurements, Km ATP
Chain of IRAK1 (P51617 whole entry): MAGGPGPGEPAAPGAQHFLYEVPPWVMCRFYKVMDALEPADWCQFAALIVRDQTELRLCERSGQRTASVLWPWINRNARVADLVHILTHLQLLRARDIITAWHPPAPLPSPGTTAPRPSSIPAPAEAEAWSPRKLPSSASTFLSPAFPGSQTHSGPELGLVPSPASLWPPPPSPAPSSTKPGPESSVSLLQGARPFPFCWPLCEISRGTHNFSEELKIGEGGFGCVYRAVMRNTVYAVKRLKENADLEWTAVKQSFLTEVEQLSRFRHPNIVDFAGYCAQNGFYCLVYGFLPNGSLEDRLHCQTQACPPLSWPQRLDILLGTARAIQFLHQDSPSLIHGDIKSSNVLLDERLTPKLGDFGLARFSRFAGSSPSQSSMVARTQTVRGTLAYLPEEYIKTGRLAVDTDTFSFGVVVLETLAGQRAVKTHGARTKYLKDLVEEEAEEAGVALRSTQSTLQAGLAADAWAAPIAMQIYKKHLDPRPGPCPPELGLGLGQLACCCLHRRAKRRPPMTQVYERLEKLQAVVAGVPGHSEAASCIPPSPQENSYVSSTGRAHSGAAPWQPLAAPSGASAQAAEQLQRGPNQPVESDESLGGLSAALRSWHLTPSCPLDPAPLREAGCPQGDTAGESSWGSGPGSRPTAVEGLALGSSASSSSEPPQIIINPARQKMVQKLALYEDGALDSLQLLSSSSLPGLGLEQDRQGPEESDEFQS
Method in brief: as §1

[1] = read-out: % Enzyme Activity (relative to DMSO controls) / TP-0005801 (0.3µM) / Data 1
[2] = read-out: % Enzyme Activity (relative to DMSO controls) / TP-0005801 (0.3µM) / Data 2

SMILES: COc1cc(N2CCN(C)CC2)c(C)cc1Nc1ncc(Br)c(Nc2cccnc2N(C)C)n1 [TP-5801]
- remaining activity at 0.3 µM (PAK5; [1]): 86.5%
- remaining activity at 0.3 µM (PAK5; [2]): 85.3%
- remaining activity at 0.3 µM (TSSK3/STK22C; [1]): 97.1%
- remaining activity at 0.3 µM (TSSK3/STK22C; [2]): 94.6%
- remaining activity at 0.3 µM (CDK5/P25; [1]): 123%
- remaining activity at 0.3 µM (CDK5/P25; [2]): 115%
- remaining activity at 0.3 µM (GCK/MAP4K2; [1]): 76.1%
- remaining activity at 0.3 µM (GCK/MAP4K2; [2]): 73.9%
- remaining activity at 0.3 µM (DCAMKL2; [1]): 93.7%
- remaining activity at 0.3 µM (DCAMKL2; [2]): 89.7%
- remaining activity at 0.3 µM (CHK2; [1]): 103%
- remaining activity at 0.3 µM (CHK2; [2]): 102%
- remaining activity at 0.3 µM (HGK/MAP4K4; [1]): 103%
- remaining activity at 0.3 µM (HGK/MAP4K4; [2]): 102%
- remaining activity at 0.3 µM (GRK5; [1]): 92%
- remaining activity at 0.3 µM (GRK5; [2]): 89.8%
- remaining activity at 0.3 µM (ERN2/IRE2; [1]): 52.8%
- remaining activity at 0.3 µM (ERN2/IRE2; [2]): 51.5%
- remaining activity at 0.3 µM (TGFBR2; [1]): 99.3%
- remaining activity at 0.3 µM (TGFBR2; [2]): 97.8%
- remaining activity at 0.3 µM (JNK3; [1]): 81%
- remaining activity at 0.3 µM (JNK3; [2]): 80.7%
- remaining activity at 0.3 µM (ERK5/MAPK7; [1]): 91.6%
- remaining activity at 0.3 µM (ERK5/MAPK7; [2]): 90.9%
- remaining activity at 0.3 µM (CDK1/cyclin B): 103%
- remaining activity at 0.3 µM (KSR1; [1]): 99.2%
- remaining activity at 0.3 µM (KSR1; [2]): 97.6%
- remaining activity at 0.3 µM (ALK5/TGFBR1; [1]): 88.1%
- remaining activity at 0.3 µM (ALK5/TGFBR1; [2]): 88%
- remaining activity at 0.3 µM (GRK6; [1]): 86.9%
- remaining activity at 0.3 µM (GRK6; [2]): 83.9%
- remaining activity at 0.3 µM (TAK1; [1]): 103%
- remaining activity at 0.3 µM (TAK1; [2]): 102%
- remaining activity at 0.3 µM (PAK1; [1]): 91.5%
- remaining activity at 0.3 µM (PAK1; [2]): 86.4%
- remaining activity at 0.3 µM (TYRO3/SKY): 105%
- remaining activity at 0.3 µM (IRAK1; [1]): 87.2%
- remaining activity at 0.3 µM (IRAK1; [2]): 83.4%
